One test deals with T1, STAT6 (Homo sapiens, UniProt P42226).
T1 construct: stably transfected HaCaT keratinocyte cell line, which expresses NanoLuc luciferase reporter gene under the transcriptional control of the STAT6 responsive promoter; endogenous in cells; host or cells: HaCaT keratinocyte reporter cell line (stably transfected with a NanoLuc reporter)
T1 sequence (P42226 1-847): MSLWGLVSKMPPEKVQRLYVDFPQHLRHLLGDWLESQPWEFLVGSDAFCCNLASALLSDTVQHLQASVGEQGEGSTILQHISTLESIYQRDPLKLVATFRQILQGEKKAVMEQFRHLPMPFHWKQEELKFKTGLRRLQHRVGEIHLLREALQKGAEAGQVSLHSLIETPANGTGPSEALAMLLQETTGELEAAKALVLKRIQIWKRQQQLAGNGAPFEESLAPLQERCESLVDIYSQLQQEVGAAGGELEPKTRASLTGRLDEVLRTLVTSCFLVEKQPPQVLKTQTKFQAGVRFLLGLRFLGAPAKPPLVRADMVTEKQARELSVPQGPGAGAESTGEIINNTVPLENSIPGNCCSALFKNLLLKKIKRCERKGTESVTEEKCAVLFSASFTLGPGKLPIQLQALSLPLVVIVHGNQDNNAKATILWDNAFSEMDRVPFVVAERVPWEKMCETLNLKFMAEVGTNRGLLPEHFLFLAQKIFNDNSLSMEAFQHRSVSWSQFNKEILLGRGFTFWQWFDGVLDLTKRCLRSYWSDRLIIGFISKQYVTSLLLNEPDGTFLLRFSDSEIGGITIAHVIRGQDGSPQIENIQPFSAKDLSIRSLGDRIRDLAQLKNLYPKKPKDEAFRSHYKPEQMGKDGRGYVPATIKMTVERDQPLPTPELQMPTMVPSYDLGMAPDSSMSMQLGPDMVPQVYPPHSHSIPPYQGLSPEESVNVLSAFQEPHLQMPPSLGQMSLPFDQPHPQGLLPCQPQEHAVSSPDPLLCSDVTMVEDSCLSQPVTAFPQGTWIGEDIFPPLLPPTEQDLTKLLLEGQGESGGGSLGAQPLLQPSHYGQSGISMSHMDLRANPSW
As to the kind of experiment: STAT6 Reporter Luciferase Assay (IL-13 stimulated HaCaT keratinocyte NanoLuc reporter cells). To be noted: IL-13 stimulated HaCaT STAT6 NanoLuc reporter cells; read-out: Reporter EC50. In kind it is cell-based. Put shortly:
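IL-13 (0.12 nM, 4 h) stimulated STAT6 reporter activity in HaCaT cells after a 2 h compound pre-incubation; NanoLuc signal was measured.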

The test system of test [1] is CCL17 secretion in peripheral human whole blood. As to the kind of experiment: Human Whole Blood (HWB) CCL17 TR-FRET Assay (IL-13 stimulated CCL17 secretion). Format: cell-based. To be noted: Homo sapiens, 48 h, human whole blood, 10 ng/mL IL13, 48 hours. Put shortly: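 Measured here: CCL17 in serum by TR-FRET (665/615 nm) after overnight (16 h) room-temperature detection. The blood, heparinized and compound-treated for 2 h, received IL-13 at 10 ng/mL final and was cultured 48 h at 37 °C.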
On the technique in general: TR-FRET usually uses a lanthanide donor and a delayed reading to cut background.

The term EC50 denotes the concentration at which the effect is half-maximal. By IC50 is commonly meant the concentration needed to halve the response being measured. A higher IC50 goes with weaker potency. For `CC(C)n1nc(C(=O)NCc2ccc(NC(=O)N3CC[C@@](C)(N)C3)cc2)c2c1[C@@H](C)CN(c1ccc(C(=O)N(C)C)cc1)C2` [Example 572, (S)-N-(4-((R)-3-amino-3-methylpyrrolidine-1-carboxamido)benzyl)-5-(4-(dimethylcarbamoyl)phenyl)-1-isopropyl-7-methyl-4,5,6,7-tetrahydro-1H-pyrazolo[4,3-c]pyridine-3-carboxamide], on STAT6, the EC50 worked out at 3 nM. The same compound registered an IC50 in test [1] of 20 nM.

Take `CC(C)n1nc(C(=O)NCc2ccc(NC(=O)N3CCN4CCC[C@@H]4C3)cc2)c2c1[C@@H](C)CN(c1ccc(C(=O)N(C)C)cc1)C2` [Example 574, (S)-5-(4-(dimethylcarbamoyl)phenyl)-1-isopropyl-7-methyl-N-(4-((R)-octahydropyrrolo[1,2-a]pyrazine-2-carboxamido)benzyl)-4,5,6,7-tetrahydro-1H-pyrazolo[4,3-c]pyridine-3-carboxamide]: the concentration giving a half-maximal response (EC50) at STAT6 was 0.5 nM. Also, the IC50 in test [1] worked out at 11 nM.

Turning to `CC(C)n1nc(C(=O)NCc2ccc(NC(=O)N3CCN4CCC[C@H]4C3)cc2)c2c1[C@@H](C)CN(c1ccc(C(=O)N(C)C)cc1)C2` [Example 575, (S)-5-(4-(dimethylcarbamoyl)phenyl)-1-isopropyl-7-methyl-N-(4-((S)-octahydropyrrolo[1,2-a]pyrazine-2-carboxamido)benzyl)-4,5,6,7-tetrahydro-1H-pyrazolo[4,3-c]pyridine-3-carboxamide], the EC50 at STAT6 is 1 nM. The same compound returned an IC50 in test [1] of 10 nM.

With `CC(C)n1nc(C(=O)NCc2ccc(NC(=O)N3CCCNCC3)c(F)c2)c2c1[C@@H](C)CN(c1ccc(C(=O)N(C)C)cc1)C2` [Example 576, (S)-N-(4-(1,4-diazepane-1-carboxamido)-3-fluorobenzyl)-5-(4-(dimethylcarbamoyl)phenyl)-1-isopropyl-7-methyl-4,5,6,7-tetrahydro-1H-pyrazolo[4,3-c]pyridine-3-carboxamide], the EC50 at STAT6 turned out to be 4 nM. The IC50 in test [1] was 19 nM.

In the case of `COC[C@H]1CN(C(=O)Nc2ccc(CNC(=O)c3nn(C(C)C)c4c3CN(c3ccc(C(=O)N(C)C)cc3)C[C@@H]4C)cc2)CCN1` [Example 577, (S)-5-(4-(dimethylcarbamoyl)phenyl)-1-isopropyl-N-(4-((R)-3-(methoxymethyl)piperazine-1-carboxamido)benzyl)-7-methyl-4,5,6,7-tetrahydro-1H-pyrazolo[4,3-c]pyridine-3-carboxamide], the half-maximal effective concentration (EC50) at STAT6 was determined as 1 nM. Further, in test [1], the IC50 was determined as 4 nM.

With `COC[C@@H]1CN(C(=O)Nc2ccc(CNC(=O)c3nn(C(C)C)c4c3CN(c3ccc(C(=O)N(C)C)cc3)C[C@@H]4C)cc2)CCN1` [Example 578, (S)-5-(4-(dimethylcarbamoyl)phenyl)-1-isopropyl-N-(4-((S)-3-(methoxymethyl)piperazine-1-carboxamido)benzyl)-7-methyl-4,5,6,7-tetrahydro-1H-pyrazolo[4,3-c]pyridine-3-carboxamide], the EC50 on STAT6 amounted to 0.5 nM. In addition, in test [1], half-maximal inhibition (IC50) required 5 nM.

Regarding `CC(C)n1nc(C(=O)NCc2ccc(NC(=O)NCC(F)F)cc2)c2c1[C@@H](C)CN(c1ccc(C(=O)N(C)C)cn1)C2` [Example 579, (S)-N-(4-(3-(2,2-difluoroethyl)ureido)benzyl)-5-(5-(dimethylcarbamoyl)pyridin-2-yl)-1-isopropyl-7-methyl-4,5,6,7-tetrahydro-1H-pyrazolo[4,3-c]pyridine-3-carboxamide], at STAT6, the concentration giving a half-maximal response (EC50) turned out to be 0.4 nM. The compound also returned a half-maximal inhibitory concentration (IC50) in test [1] of 8 nM.

`CC(C)n1nc(C(=O)NCc2ccc(NC(=O)N3CCN(C)CC3)c(F)c2)c2c1[C@@H](C)CN(c1ccc(C(=O)N(C)C)cc1)C2` [Example 580, (S)-5-(4-(dimethylcarbamoyl)phenyl)-N-(3-fluoro-4-(4-methylpiperazine-1-carboxamido)benzyl)-1-isopropyl-7-methyl-4,5,6,7-tetrahydro-1H-pyrazolo[4,3-c]pyridine-3-carboxamide]: the concentration giving a half-maximal response (EC50) at STAT6 was determined as 1 nM. In test [1], the IC50 came out at 11 nM.

Regarding `CNC1(C)CN(C(=O)Nc2ccc(CNC(=O)c3nn(C(C)C)c4c3CN(c3ccc(C(=O)N(C)C)cc3)C[C@@H]4C)cc2)C1` [Example 581, (S)-5-(4-(dimethylcarbamoyl)phenyl)-1-isopropyl-7-methyl-N-(4-(3-methyl-3-(methylamino)azetidine-1-carboxamido)benzyl)-4,5,6,7-tetrahydro-1H-pyrazolo[4,3-c]pyridine-3-carboxamide], at STAT6, the concentration for a half-maximal effect (EC50) was found to be 3 nM. The compound further came in with an IC50 in test [1] of 24 nM.

Turning to `CC(C)n1nc(C(=O)NCc2ccc(NC(=O)N3CCCC3)cc2)c2c1[C@@H](C)CN(c1ccc(C(=O)N(C)C)cn1)C2` [Example 583, (S)-5-(5-(dimethylcarbamoyl)pyridin-2-yl)-1-isopropyl-7-methyl-N-(4-(pyrrolidine-1-carboxamido)benzyl)-4,5,6,7-tetrahydro-1H-pyrazolo[4,3-c]pyridine-3-carboxamide], the EC50 on STAT6 came out at 1 nM. Further, the half-inhibitory concentration (IC50) in test [1] amounted to 17 nM.

Turning to `CC(C)n1nc(C(=O)NCc2ccc(NC(=O)N3CC(F)C3)cc2)c2c1[C@@H](C)CN(c1ccc(C(=O)N(C)C)cn1)C2` [Example 584, (S)-5-(5-(dimethylcarbamoyl)pyridin-2-yl)-N-(4-(3-fluoroazetidine-1-carboxamido)benzyl)-1-isopropyl-7-methyl-4,5,6,7-tetrahydro-1H-pyrazolo[4,3-c]pyridine-3-carboxamide], the EC50 on STAT6 is 1 nM. In addition, half-maximal inhibition in test [1] (IC50) was put at 12 nM.

On to `CC(C)n1nc(C(=O)NCc2ccc(NC(=O)C3CCN(C)CC3)cc2)c2c1[C@@H](C)CN(c1ccc(C(=O)N(C)C)cc1)C2` [Example 585, (S)-5-(4-(dimethylcarbamoyl)phenyl)-1-isopropyl-7-methyl-N-(4-(1-methylpiperidine-4-carboxamido)benzyl)-4,5,6,7-tetrahydro-1H-pyrazolo[4,3-c]pyridine-3-carboxamide], for which the EC50 on STAT6 turned out to be 6 nM. Half-maximal inhibition in test [1] (IC50) required 37 nM.

With `CC(C)n1nc(C(=O)NCc2ccc(NC(=O)C3(F)CCN(C)CC3)cc2)c2c1[C@@H](C)CN(c1ccc(C(=O)N(C)C)cc1)C2` [Example 586, (S)-5-(4-(dimethylcarbamoyl)phenyl)-N-(4-(4-fluoro-1-methylpiperidine-4-carboxamido)benzyl)-1-isopropyl-7-methyl-4,5,6,7-tetrahydro-1H-pyrazolo[4,3-c]pyridine-3-carboxamide], on STAT6, the EC50 turned out to be 6 nM. Besides, half-maximal inhibition in test [1] (IC50) was put at 58 nM.

Regarding `CC(C)n1nc(C(=O)NCc2ccc(NC(=O)C3CCN(C)CC3)c(F)c2)c2c1[C@@H](C)CN(c1ccc(C(=O)N(C)C)cn1)C2` [Example 587, (S)-5-(5-(dimethylcarbamoyl)pyridin-2-yl)-N-(3-fluoro-4-(1-methylpiperidine-4-carboxamido)benzyl)-1-isopropyl-7-methyl-4,5,6,7-tetrahydro-1H-pyrazolo[4,3-c]pyridine-3-carboxamide], at STAT6, the EC50 stood at 14 nM. The IC50 in test [1] is 122 nM.

For `COc1cc(NC(=O)N2CCNCC2)c(F)cc1CNC(=O)c1nn(C(C)C)c2c1CN(c1ccc(C(=O)N(C)C)cc1)C[C@@H]2C` [Example 588, (S)-5-(4-(dimethylcarbamoyl)phenyl)-N-(5-fluoro-2-methoxy-4-(piperazine-1-carboxamido)benzyl)-1-isopropyl-7-methyl-4,5,6,7-tetrahydro-1H-pyrazolo[4,3-c]pyridine-3-carboxamide], the EC50 at STAT6 turned out to be 75 nM. For the same compound, in test [1], the IC50 came to 875 nM.

For `CC(C)n1nc(C(=O)NCc2ccc(NC(=O)N3CCNCC3)cc2F)c2c1[C@@H](C)CN(c1ccc(C(=O)N(C)C)cc1)C2` [Example 589, (S)-5-(4-(dimethylcarbamoyl)phenyl)-N-(2-fluoro-4-(piperazine-1-carboxamido)benzyl)-1-isopropyl-7-methyl-4,5,6,7-tetrahydro-1H-pyrazolo[4,3-c]pyridine-3-carboxamide], the half-maximal effective concentration (EC50) at STAT6 stood at 3 nM. In test [1], this compound yielded an IC50 of 19 nM.

The record behind these values is patent publication US20250320213A1, “Nitrogen-Containing Heterocyclic Compounds” (Pfizer Inc., priority 2024, published 2025).
